≈ marks a conversion by molar mass, not a printed value. Calls of active or inactive are those of the source. No cut-off for these calls is given here.

In data set [1] the target is T1, Cannabinoid receptor 1 (Homo sapiens, UniProt P21554). As to the kind of experiment: Positive allosteric modulation of human CB1 receptor expressed in CHO-K1 cells assessed as beta-arrestin 2 […] by measuring maximum efficacy incubated for 90 mins by PathHunter chemiluminescence based assay relative to control. In kind it is cell-based.
The target in data set [2] is T1, Cannabinoid receptor 1. As to the kind of experiment: Positive allosteric modulation of human CB1 receptor expressed in CHO-K1 cells assessed as beta-arrestin 2 recruitment incubated for 90 mins by PathHunter chemiluminescence based assay. Format: cell-based.
For data set [3], the target named is T1, Cannabinoid receptor 1. As to the kind of experiment: Positive allosteric modulation of human CB1 receptor expressed in CHO-K1 cells assessed as inhibition of forskolin-induced cAMP production by measuring maximum efficacy incubated for 30 mins in presence of forskolin by HitHunter chemiluminescence based assay relative to control. Format: functional, cell-based. Background: Changes in cAMP serve as a functional read-out for many G protein-coupled receptors.

Data set [4] has as its target T1, Cannabinoid receptor 1. In words: Positive allosteric modulation of human CB1 receptor expressed in CHO-K1 cells assessed as inhibition of forskolin-induced cAMP production incubated for 30 mins in presence of forskolin by HitHunter chemiluminescence based assay. Format: functional, cell-based.
In data set [5] the target is T1, Cannabinoid receptor 1. As to the kind of experiment: Displacement of [3H]CP55940 from human CB1 receptor expressed in CHO-K1 cell membrane assessed as maximum efficacy incubated for 60 mins by liquid scintillation spectrometry analysis relative to control. Format: cell membranes. A general note: In a radioligand displacement assay an active substance lowers the binding of a labelled ligand.

The nature of data set [6]: in vitro. The settings on record: rat, liver microsomes.
Data set [7] is described as follows: in vitro. The conditions noted are these: human, liver microsomes. Background: Liver microsomes are a subcellular fraction often used to study metabolism.
Data set [8] can be described thus: physchem. The settings on record: PBS buffer, pH 7.4.
A short description of data set [9]: in vitro. The settings on record: rat, liver microsomes. This is another data set of the same source.
A short description of data set [10]: in vitro. The settings on record: human, liver microsomes. The source holds these as a separate data set.
The target in data set [11] is T1, Cannabinoid receptor 1. As to the kind of experiment: Agonist activity at human CB1 receptor expressed in CHO cell membranes assessed as increase in [35S]GTPgammaS binding incubated for 30 mins by liquid scintillation spectrometry analysis. Format: functional, CHO-K1, Cell membrane.
Data set [12] has as its system Mus musculus. As to the kind of experiment: Antiglaucoma activity in normotensive C57BL/6 mouse model assessed as reduction in intraocular pressure at 5 mM administered topically measured after 1 hr. In kind it is functional.
In data set [13] the target is Cannabinoid receptor 1 (Mus musculus) (UniProt P47746). In words: Positive allosteric modulation of CB1 receptor in MF1 mouse vas deferens assessed as inhibition of AEA-induced electrically evoked vas deferens contraction by measuring maximum efficacy incubated for 13 mins followed by electrical stimulation for 2 mins (Rvb= […]+/- […]% ). The conditions noted are these: filed as positive allosteric modulator. Format: tissue-based.

Data set [14] has the same target. As to the kind of experiment: Positive allosteric modulation of CB1 receptor in C57BL/6 mouse hippocampal neurons assessed as decrease in inhibition of DSE recovery rate at 1 uM and holding potential at 0 mV for 10 secs followed by DSE stimulation. The conditions noted are these: Neuron, filed as positive allosteric modulator, time 10.0 sec. In kind it is tissue-based.

Data set [15] has the same target. As to the kind of experiment: Agonist activity at CB1 receptor in C57BL/6 mouse hippocampal neurons assessed as inhibition of excitatory postsynaptic current at 1 uM at -70 mV holding membrane potential by whole cell patch clamp assay. In kind it is functional, tissue-based. The settings on record: Neuron, filed as agonist.
Data set [16] addresses T1, Cannabinoid receptor 1. As to the kind of experiment: Potency index, ratio of GAT211 EC50 to test compound EC50 for positive allosteric modulation of human CB1 receptor expressed in CHO-K1 cells assessed as inhibition of forskolin-induced cAMP production incubated for 30 mins in presence of CP55940 by HitHunter chemiluminescence based assay. Format: functional, cell-based.

The target in data set [17] is Cannabinoid receptor 1 (Mus musculus, UniProt P47746). In words: Positive allosteric modulation of CB1 receptor in MF1 mouse vas deferens assessed as inhibition of AEA-induced electrically evoked vas deferens contraction incubated for 13 mins followed by electrical stimulation for 2 mins (Rvb= 460 nM). Format: tissue-based.
The target of data set [18] is T1, Cannabinoid receptor 1. As to the kind of experiment: Displacement of [3H]CP55940 from human CB1 receptor expressed in CHO-K1 cell membranes incubated for 60 mins by liquid scintillation spectrometry analysis. Details: species or system Cell membrane.
Data set [19] deals with T1, Cannabinoid receptor 1. As to the kind of experiment: Agonist activity at human CB1 receptor expressed in CHO cell membranes assessed as increase in [35S]GTPgammaS binding by measuring maximum efficacy incubated for 30 mins by liquid scintillation spectrometry analysis relative to control. The settings on record: CHO-K1, Cell membrane, filed as agonist. In kind it is functional.

For data set [20], the target named is T1, Cannabinoid receptor 1. As to the kind of experiment: Agonist activity at human CB1 receptor expressed in CHO cell membranes assessed as increase in [35S]GTPgammaS binding by measuring maximum efficacy incubated for 30 mins in presence of CP55940 by liquid scintillation spectrometry analysis relative to control. In kind it is functional. The settings on record: CHO-K1, Cell membrane, filed as agonist.

[21] abbreviates: filed as positive allosteric modulator.

T1 sequence (P21554 whole entry): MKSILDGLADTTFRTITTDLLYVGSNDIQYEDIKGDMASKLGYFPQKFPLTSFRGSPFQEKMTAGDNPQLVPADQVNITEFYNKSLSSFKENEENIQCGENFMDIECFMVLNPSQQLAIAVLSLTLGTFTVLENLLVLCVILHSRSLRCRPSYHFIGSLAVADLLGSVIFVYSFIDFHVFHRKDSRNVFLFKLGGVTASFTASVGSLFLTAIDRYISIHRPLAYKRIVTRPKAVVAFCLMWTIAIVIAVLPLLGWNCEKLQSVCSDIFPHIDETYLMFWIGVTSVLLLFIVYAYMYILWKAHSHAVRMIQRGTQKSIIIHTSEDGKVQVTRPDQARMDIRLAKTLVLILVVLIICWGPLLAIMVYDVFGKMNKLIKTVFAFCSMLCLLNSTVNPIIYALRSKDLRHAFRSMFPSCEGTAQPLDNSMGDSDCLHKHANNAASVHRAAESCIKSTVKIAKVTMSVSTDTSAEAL
Chain of Cannabinoid receptor 1 (Mus musculus) (P47746 whole entry): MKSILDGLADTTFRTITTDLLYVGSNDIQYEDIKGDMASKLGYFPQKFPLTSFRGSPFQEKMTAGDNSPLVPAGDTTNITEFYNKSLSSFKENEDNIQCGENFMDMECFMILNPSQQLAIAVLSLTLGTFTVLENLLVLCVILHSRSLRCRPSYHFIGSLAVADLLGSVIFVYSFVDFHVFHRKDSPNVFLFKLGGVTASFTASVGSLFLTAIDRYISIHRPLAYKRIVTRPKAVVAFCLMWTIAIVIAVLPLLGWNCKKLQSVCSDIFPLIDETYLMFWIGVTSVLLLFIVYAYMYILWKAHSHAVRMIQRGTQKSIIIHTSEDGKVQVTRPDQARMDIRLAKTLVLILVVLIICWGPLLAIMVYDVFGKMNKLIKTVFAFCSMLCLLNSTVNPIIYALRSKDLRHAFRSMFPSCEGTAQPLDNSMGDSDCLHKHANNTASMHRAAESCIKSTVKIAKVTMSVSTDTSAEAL
Chain of Cannabinoid receptor 1 (Mus musculus, UniProt P47746) (P47746 whole entry): as above

As for `CC(C)[Si](C(C)C)(C(C)C)n1ccc(-c2[nH]c3ccccc3c2C(C[N+](=O)[O-])c2ccccc2)c1` (stereo unspecified), the results for the Emax in [1] and in data set [3] (setting [21]) were -4.5% and 120%, respectively. The results for the EC50 in data set [2] and in data set [4] were > 10000 nM and 970 nM, respectively.

`O=[N+]([O-])CC(c1ccccc1)c1c(-c2ccn[nH]2)[nH]c2ccccc12` (stereo in doubt; 15h) [listing 1 of 2 here]: the Emax (commonly the size of the effect at its maximum, as opposed to the concentration needed) in data set [1] was determined as 0.76%; in data set [3] (setting [21]), 120%.

Take `O=[N+]([O-])CC(c1ccccc1)c1c(-c2ccco2)[nH]c2ccccc12` (stereo unspecified): the Emax in data set [1] was found to be 11%; in data set [3] (setting [21]) it was 140%. In addition, the EC50 – broadly, the concentration giving half of the maximal effect – in [2] stood at 2100 nM; in data set [4], 130 nM.

For the molecule `O=[N+]([O-])CC(c1ccccc1)c1c(-c2ccccc2)[nH]c2ccccc12` (stereo unspecified), in data set [5] (setting [21]), the Emax stood at 57%.

On to `O=[N+]([O-])CC(c1ccccc1)c1c(-c2cncs2)[nH]c2ccccc12` (stereo unspecified), for which the Emax was 5.1% in [1] and 100% in data set [3] (setting [21]). Moreover, the EC50 in [2] was > 10000 nM; in data set [4], 1500 nM.

With `O=[N+]([O-])CC(c1ccccc1)c1c(-c2ccn[nH]2)[nH]c2ccccc12` (stereo in doubt; 15g) [listing 1 of 2 here], the EC50 in [2] and in [4] was > 10000 nM throughout.

With `O=[N+]([O-])CC(c1ccccc1)c1c(-c2cccs2)[nH]c2ccccc12` (stereo unspecified), the half-life (in general, how long it takes for the measured level to halve) at 0.25 h, 1 µM in data set [6] stood at 3.88 min; in [10], 20 min. The values for the microsomal CLint at 0.25 h, 1 µM in data set [7] and in [9] were 115 µL/min/mg and 595 µL/min/mg, respectively. The Emax amounted to 57% in [1] (setting [21]) and 85% in [3] (setting [21]). In addition, the EC50 in data set [2] came to 110 nM; in [4], 170 nM. Moreover, in data set [8], the solubility (kinetic) – broadly, the concentration staying in solution when a stock, usually in DMSO, is diluted into the medium – at 2 h, 200 µM is 1.56 µM (≈ 0.544 µg/mL).

On to `O=[N+]([O-])CC(c1ccccc1)c1c(-c2ccoc2)[nH]c2ccccc12` (stereo unspecified), for which the Emax was 18% in data set [1] and 120% in [3] (setting [21]). The EC50 in [2] was > 1000 nM; in [4] it was 100 nM.

On to `CC(C)(C)OC(=O)n1c(-c2[nH]c3ccccc3c2C(C[N+](=O)[O-])c2ccccc2)cc2ccccc21` (stereo unspecified), for which the Emax in data set [1] and in data set [3] was 0% throughout. The EC50 in [2] and in [4] was > 10000 nM throughout.

For the molecule `O=[N+]([O-])CC(c1ccccc1)c1c(-c2cc3ccccc3o2)[nH]c2ccccc12` (stereo unspecified), the Emax turned out to be 9.5% in [1] and 96% in data set [3] (setting [21]). For the same molecule, the figures for the concentration giving a half-maximal response (EC50) in [2] and in data set [4] were > 10000 nM and 550 nM, respectively.

On to `O=[N+]([O-])CC(c1ccccc1)c1c(-c2c[nH]c3ccccc23)[nH]c2ccccc12` (stereo unspecified), for which the figures for the Emax in [1] and in data set [3] were 1.3% and -71%, respectively. For the same molecule, the EC50 in data set [2] and in data set [4] was > 10000 nM throughout.

Turning to `O=[N+]([O-])CC(c1ccccc1)c1c(-c2ccn[nH]2)[nH]c2ccccc12` (stereo in doubt; 15g) [listing 2 of 2 here], the Emax in data set [1] and in data set [3] was 0% in each case.

Consider `O=[N+]([O-])CC(c1ccccc1)c1c(-c2cc3ccccc3[nH]2)[nH]c2ccccc12` (stereo unspecified), for which the values for the Emax in data set [1] and in [3] (setting [21]) were 3.3% and 110%, respectively. Also, the EC50 in data set [2] and in data set [4] was > 10000 nM in each case.

Regarding `O=[N+]([O-])CC(c1ccccc1)c1c(-c2ccsc2)[nH]c2ccccc12` (stereo unspecified), the figures for the half-life at 0.25 h, 1 µM in data set [6] and in data set [10] were 4.72 min and 20.8 min, respectively. Besides, the microsomal CLint (as a rule, the capacity of the preparation to metabolise the compound, expressed as a volume cleared per time) at 0.25 h, 1 µM in data set [7] came to 111 µL/min/mg; in data set [9] it was 489 µL/min/mg. The EC50 in [11] is 130 nM; in [2] it was 320 nM; in data set [17] it was 30 nM; in data set [4] it was 87 nM. The Emax was 46% in [1] (setting [21]); 98% in [3] (setting [21]); 62% in data set [13]; 100% in [5] (setting [21]); 49% in data set [19]; 46% in data set [20]. Further, the Activity in data set [12] came to 3.2 mmHg. The outcome in data set [14] was Active. In data set [8], this molecule displayed a kinetic solubility at 2 h, 200 µM of 1.56 µM (≈ 0.544 µg/mL). Besides, the inhibition entry in [15] is “Active”. Also, the Ratio EC50 in data set [16] is 3. In addition, the Ki – broadly, the dissociation constant of the complex between target and ligand, obtained from inhibition or displacement – in data set [18] came out at 43 nM.

As to `O=[N+]([O-])CC(c1ccccc1)c1c(-c2ccn[nH]2)[nH]c2ccccc12` (stereo in doubt; 15h) [listing 2 of 2 here], the concentration for a half-maximal effect (EC50) in data set [2] (cho-k1) and in data set [4] (cho-k1) was > 10000 nM in each case.

Consider `O=[N+]([O-])CC(c1ccccc1)c1c(-c2nccs2)[nH]c2ccccc12` (stereo unspecified), for which the values for the Emax in [1] and in data set [3] (setting [21]) were 2.8% and 72%, respectively. Besides, the EC50 in data set [2] was > 10000 nM; in data set [4], 790 nM.

`O=[N+]([O-])CC(c1ccccc1)c1c(-c2cc[nH]c2)[nH]c2ccccc12` (stereo unspecified): the Emax was -1.5% in [1] and 52% in data set [3] (setting [21]). Moreover, the EC50 in data set [2] and in data set [4] was > 10000 nM in each case.

For `O=[N+]([O-])CC(c1ccccc1)c1c(-c2cn[nH]c2)[nH]c2ccccc12` (stereo unspecified), the Emax was 3.5% in data set [1] and 110% in data set [3] (setting [21]). For the same molecule, the EC50 in [2] and in data set [4] was > 10000 nM each time.

On to `O=[N+]([O-])CC(c1ccccc1)c1c(-c2ccc[nH]2)[nH]c2ccccc12` (stereo unspecified), for which the figures for the Emax in data set [1] and in data set [3] (setting [21]) were 25% and 110%, respectively. The figures for the half-maximal effective concentration (EC50) in [2] and in data set [4] were > 10000 nM and 220 nM, respectively.

In the case of `O=[N+]([O-])CC(c1ccccc1)c1c(-c2cc3ccccc3s2)[nH]c2ccccc12` (stereo unspecified), the figures for the Emax in data set [1] and in data set [3] (setting [21]) were 13% and 130%, respectively. The results for the EC50 in data set [2] and in data set [4] were > 10000 nM and 150 nM, respectively.

Consider `O=[N+]([O-])CC(c1ccccc1)c1c(-c2cscn2)[nH]c2ccccc12` (stereo unspecified), for which the Emax in data set [1] (setting [21]) is 45%; in data set [3], 38%. Further, the 50% effective concentration (EC50) in data set [2] was > 10000 nM; in [4] it was 1200 nM.

In the case of `CCCCCCC(C)(C)c1ccc([C@@H]2C[C@H](O)CC[C@H]2CCCO)c(O)c1`, the figures for the Emax in [5] and in [19] were -100% and 42%, respectively.

For the origin of these results see ChEMBL document CHEMBL5053527, “Design, synthesis, and pharmacological profiling of cannabinoid 1 receptor allosteric modulators: Preclinical efficacy of C2-group GAT211 congeners for reducing intraocular pressure” (Bioorg Med Chem, 2021).
